According to US9834518B2, “Compounds for inhibiting cell proliferation in EGFR-driven cancers” (ARIAD Pharmaceuticals, Inc., priority 2011, dated 2017):

Tests used:
[1] = target: human EGFR (native sequence) (Homo sapiens, UniProt P00533); experiment: Kinase inhibition, human EGFR (native sequence); type: biochemical; conditions: 10 μM ATP; 10 pt curves, 3 μM top concentration (singlicates)
Description: (§1) Kinase inhibitory activity of the compounds was measured against human EGFR (native sequence) and against EGFR bearing the L858R mution and the L858R/T790M double mutation (EGFR, L858R, and L858R/T790M, respectively in Table 1). Additional assays can be conducted with EGFR deletion mutants such as delE746-A750 with or without the additional T790M mutation. Assay conditions included 10 pt curves with 3 μM top concentration (singlicates) and 10 μM ATP.

[2] = target: EGFR bearing the L858R mution (Homo sapiens, UniProt P00533, L858R); experiment: Kinase inhibition, EGFR L858R; type: biochemical; conditions: 10 μM ATP; 10 pt curves, 3 μM top concentration (singlicates)
Description: as §1

[3] = target: EGFR bearing the L858R/T790M double mutation (Homo sapiens, UniProt P00533, L858R/T790M); experiment: Kinase inhibition, EGFR L858R/T790M; type: biochemical; conditions: 10 μM ATP; 10 pt curves, 3 μM top concentration (singlicates)
Description: as §1

BAF3 PARENTAL = experiment: Cell proliferation (MTT), BAF3 parental; type: cell-based; conditions: Mus musculus
Description: (§2) We also assessed the antiproliferative activity of compounds of Formula (I) against BaF3 cells expressing the target EGFR mutations or control (i.e., cell lines expressing wildtype EGFR). Assays were conducted using MTT.

[4] = target: BAF3 EGFR DEL T790M PURO POOL (Homo sapiens, UniProt P00533, DEL746-750/T790M, cells depend on it); experiment: Cell proliferation (MTT), BAF3 EGFR DEL T790M; type: cell-based
Description: as §2

[5] = test system: BAF3 EGFR L858R-T790M PURO POOL; experiment: Cell proliferation (MTT), BAF3 EGFR L858R-T790M; type: cell-based; conditions: Ba/F3 EGFR
Description: as §2

EGFR bearing the L858R mution, sequence (P00533 25-1210 L858R): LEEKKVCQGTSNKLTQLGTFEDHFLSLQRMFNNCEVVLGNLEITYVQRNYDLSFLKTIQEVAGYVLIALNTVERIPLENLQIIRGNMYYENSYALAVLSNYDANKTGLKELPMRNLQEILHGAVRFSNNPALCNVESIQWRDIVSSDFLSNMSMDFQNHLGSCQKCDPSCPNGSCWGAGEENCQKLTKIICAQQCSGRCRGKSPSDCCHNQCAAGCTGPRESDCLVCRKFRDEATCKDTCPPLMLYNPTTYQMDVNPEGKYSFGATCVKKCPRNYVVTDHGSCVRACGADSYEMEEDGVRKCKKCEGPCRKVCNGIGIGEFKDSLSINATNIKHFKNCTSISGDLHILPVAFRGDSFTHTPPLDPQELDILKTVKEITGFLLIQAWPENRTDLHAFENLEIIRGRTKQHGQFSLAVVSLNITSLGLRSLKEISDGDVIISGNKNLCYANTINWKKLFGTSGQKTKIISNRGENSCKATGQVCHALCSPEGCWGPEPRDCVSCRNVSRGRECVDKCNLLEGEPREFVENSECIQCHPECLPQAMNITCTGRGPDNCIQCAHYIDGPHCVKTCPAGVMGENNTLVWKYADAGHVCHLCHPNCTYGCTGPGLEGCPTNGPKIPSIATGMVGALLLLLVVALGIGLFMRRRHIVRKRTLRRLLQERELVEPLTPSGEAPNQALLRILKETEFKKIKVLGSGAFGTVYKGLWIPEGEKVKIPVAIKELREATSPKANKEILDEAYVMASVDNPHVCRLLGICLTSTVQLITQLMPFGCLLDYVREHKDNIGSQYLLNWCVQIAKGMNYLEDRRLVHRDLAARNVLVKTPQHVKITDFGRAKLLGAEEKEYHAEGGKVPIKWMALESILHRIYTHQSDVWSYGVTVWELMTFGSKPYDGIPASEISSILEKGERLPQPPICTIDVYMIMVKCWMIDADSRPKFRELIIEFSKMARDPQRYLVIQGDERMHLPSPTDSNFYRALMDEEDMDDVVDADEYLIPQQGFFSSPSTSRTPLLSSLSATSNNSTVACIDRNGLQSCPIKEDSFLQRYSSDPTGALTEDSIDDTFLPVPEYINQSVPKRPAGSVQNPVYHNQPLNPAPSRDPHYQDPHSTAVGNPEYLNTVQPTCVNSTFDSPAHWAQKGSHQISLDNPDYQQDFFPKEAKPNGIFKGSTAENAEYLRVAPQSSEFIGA
human EGFR (native sequence), sequence (P00533 25-1210): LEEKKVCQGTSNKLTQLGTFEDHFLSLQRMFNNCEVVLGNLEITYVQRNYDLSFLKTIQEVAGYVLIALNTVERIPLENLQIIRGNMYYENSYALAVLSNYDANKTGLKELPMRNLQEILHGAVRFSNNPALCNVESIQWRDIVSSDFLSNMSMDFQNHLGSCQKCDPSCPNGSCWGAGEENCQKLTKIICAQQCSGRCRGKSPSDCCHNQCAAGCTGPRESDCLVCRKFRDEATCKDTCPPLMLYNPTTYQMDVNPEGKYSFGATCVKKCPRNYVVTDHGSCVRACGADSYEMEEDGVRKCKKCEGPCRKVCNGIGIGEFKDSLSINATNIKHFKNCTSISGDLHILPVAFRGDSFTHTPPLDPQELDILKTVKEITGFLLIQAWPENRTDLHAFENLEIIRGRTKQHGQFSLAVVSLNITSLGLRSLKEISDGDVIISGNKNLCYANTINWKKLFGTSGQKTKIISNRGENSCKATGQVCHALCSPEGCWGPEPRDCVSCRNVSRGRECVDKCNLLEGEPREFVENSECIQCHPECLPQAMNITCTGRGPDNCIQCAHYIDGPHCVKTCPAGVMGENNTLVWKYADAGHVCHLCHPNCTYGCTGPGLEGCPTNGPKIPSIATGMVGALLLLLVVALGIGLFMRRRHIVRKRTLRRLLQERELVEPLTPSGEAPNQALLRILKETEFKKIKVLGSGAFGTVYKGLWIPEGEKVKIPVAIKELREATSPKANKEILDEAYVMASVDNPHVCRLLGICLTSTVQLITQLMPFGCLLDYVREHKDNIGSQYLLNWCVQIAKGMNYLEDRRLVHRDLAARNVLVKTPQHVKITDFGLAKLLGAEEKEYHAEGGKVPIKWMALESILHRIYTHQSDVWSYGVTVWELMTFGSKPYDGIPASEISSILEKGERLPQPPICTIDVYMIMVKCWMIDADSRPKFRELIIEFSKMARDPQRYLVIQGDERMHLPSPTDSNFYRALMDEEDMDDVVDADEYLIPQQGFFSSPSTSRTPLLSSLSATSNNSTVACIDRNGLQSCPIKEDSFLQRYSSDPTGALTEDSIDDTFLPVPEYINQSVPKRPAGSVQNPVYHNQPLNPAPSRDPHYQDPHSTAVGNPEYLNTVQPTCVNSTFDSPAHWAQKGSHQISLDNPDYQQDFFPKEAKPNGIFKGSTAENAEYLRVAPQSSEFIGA
EGFR bearing the L858R/T790M double mutation, sequence (P00533 25-1210 T790M/L858R): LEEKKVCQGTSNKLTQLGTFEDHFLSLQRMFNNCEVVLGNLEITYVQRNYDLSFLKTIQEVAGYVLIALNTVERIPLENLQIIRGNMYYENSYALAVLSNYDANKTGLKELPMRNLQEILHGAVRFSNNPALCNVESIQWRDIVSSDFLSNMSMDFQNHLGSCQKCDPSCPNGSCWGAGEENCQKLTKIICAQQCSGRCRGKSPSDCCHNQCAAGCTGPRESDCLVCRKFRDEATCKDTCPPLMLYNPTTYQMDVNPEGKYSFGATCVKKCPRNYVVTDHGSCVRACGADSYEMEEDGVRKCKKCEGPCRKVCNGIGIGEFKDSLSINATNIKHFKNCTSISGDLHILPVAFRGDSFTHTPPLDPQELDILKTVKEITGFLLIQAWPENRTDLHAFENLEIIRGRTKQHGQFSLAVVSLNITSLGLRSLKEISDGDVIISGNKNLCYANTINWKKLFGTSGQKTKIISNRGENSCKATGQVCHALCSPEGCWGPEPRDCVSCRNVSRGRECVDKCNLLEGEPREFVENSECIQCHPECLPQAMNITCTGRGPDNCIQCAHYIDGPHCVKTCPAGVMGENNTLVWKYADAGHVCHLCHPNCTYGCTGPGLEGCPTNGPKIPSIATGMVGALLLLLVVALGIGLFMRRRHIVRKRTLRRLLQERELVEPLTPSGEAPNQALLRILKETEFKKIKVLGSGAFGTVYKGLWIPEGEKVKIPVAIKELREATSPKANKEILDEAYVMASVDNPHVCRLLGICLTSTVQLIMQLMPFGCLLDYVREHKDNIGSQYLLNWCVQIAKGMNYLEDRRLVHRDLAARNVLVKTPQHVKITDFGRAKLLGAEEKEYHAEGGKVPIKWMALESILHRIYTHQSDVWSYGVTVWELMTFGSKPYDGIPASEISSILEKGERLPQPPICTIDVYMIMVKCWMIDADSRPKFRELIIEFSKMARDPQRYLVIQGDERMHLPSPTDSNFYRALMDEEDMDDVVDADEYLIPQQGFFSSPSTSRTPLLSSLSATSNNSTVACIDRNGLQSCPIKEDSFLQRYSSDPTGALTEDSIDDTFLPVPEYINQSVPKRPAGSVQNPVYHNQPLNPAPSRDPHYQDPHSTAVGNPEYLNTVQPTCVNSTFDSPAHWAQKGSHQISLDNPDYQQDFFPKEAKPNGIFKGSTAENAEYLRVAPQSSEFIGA
BAF3 EGFR DEL T790M PURO POOL, sequence (P00533 with tags, fused parts or gaps DEL746-750/T790M): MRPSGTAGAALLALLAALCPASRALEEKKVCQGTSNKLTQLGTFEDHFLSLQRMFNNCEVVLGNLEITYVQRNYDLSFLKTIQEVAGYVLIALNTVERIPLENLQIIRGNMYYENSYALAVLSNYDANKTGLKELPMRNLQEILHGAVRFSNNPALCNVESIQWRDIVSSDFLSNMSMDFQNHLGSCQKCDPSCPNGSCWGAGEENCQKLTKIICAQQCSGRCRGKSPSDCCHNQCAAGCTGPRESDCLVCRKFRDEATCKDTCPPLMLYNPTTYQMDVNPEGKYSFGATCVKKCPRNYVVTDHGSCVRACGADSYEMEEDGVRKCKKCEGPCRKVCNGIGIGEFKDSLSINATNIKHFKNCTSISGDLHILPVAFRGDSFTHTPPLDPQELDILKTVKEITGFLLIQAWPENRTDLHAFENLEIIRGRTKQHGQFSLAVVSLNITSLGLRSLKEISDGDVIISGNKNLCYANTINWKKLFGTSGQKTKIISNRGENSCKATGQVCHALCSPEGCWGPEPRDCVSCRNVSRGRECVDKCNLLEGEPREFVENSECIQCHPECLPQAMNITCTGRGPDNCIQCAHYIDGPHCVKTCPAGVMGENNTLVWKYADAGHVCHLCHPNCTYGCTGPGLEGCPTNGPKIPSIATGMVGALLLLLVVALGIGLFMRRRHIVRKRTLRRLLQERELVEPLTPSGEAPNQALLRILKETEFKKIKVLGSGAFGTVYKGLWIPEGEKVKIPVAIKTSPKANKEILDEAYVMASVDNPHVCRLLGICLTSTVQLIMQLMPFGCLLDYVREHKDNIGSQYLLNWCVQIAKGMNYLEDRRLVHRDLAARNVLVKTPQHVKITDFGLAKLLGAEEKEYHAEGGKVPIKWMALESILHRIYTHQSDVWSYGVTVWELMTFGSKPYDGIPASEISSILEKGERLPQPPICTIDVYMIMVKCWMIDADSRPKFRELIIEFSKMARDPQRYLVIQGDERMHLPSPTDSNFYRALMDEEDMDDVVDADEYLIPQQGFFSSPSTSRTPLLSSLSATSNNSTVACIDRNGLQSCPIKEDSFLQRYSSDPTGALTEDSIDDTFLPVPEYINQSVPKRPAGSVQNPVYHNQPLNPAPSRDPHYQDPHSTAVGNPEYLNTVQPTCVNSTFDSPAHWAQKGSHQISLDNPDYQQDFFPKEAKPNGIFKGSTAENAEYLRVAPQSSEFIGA

Row | SMILES | IC50 [1] [nM] | IC50 [2] [nM] | IC50 [3] [nM] | IC50 (BAF3 PARENTAL) [nM] | IC50 [4] [nM] | IC50 [5] [nM]
1 | C=CC(=O)Nc1cc(Nc2ncc(Cl)c(Nc3ccccc3P(=O)(CC)CC)n2)c(OC)cc1OCCN(C)C [Example 52, N-(5-((5-chloro-4-((2-(diethylphosphoryl)phenyl)amino)pyrimidin-2-yl)amino)-2-(2-(dimethylamino)ethoxy)-4-methoxyphenyl)acrylamide] | < 51 | < 51 | < 51 | ≥ 250 | < 51 | < 51
2 | C=CC(=O)Nc1ccc(OC)c(Nc2ncc(C)c(Nc3ccccc3P(C)(C)=O)n2)c1 [Example 64, N-(3-((4-((2-(dimethylphosphoryl)phenyl)amino)-5-methylpyrimidin-2-yl)amino)-4-methoxyphenyl)acrylamide] | < 51 | < 51 | < 51 | ≥ 250 | < 51 | < 51
3 | C=CC(=O)Nc1cc(Nc2ncc(Cl)c(Nc3ccccc3P(C)(C)=O)n2)c(OC)cc1OC(COC)CN(C)C (stereo not drawn) [Example 28, N-(5-((5-chloro-4-((2-(dimethylphosphoryl)phenyl)amino)pyrimidin-2-yl)amino)-2-((1-(dimethylamino)-3-methoxypropan-2-yl)oxy)-4-methoxyphenyl)acrylamide] | < 51 | < 51 | < 51 | ≥ 250 | < 51 | < 51
4 | COc1ccc(NC(=O)C2CO2)cc1Nc1ncc(Cl)c(Nc2ccccc2P(C)(C)=O)n1 (stereo not drawn) [Example 58, N-(3-((5-chloro-4-((2-(dimethylphosphoryl)phenyl)amino)pyrimidin-2-yl)amino)-4-methoxyphenyl)oxirane-2-carboxamide] | < 51 | < 51 | < 51 | ≥ 250 | < 51 | < 51
5 | C=CC(=O)Nc1cc(Nc2ncc(Cl)c(Nc3ccccc3P(C)(C)=O)n2)c(OC)cc1O[C@@H](COC)CN(CC)CC (stereo in doubt) [Example 29, rac-(R)—N-(5-((5-chloro-4-((2-(dimethylphosphoryl)phenyl)amino)pyrimidin-2-yl)amino)-2-((1-(diethylamino)-3-methoxypropan-2-yl)oxy)-4-methoxyphenyl)acrylamide] | < 51 | < 51 | < 51 | ≥ 250 | < 51 | < 51
6 | C=CC(=O)Nc1ccc(OC)c(Nc2ncc(Cl)c(Nc3cccc(F)c3P(C)(C)=O)n2)c1 [Example 53, N-(3-((5-chloro-4-((2-(dimethylphosphoryl)-3-fluorophenyl)amino)pyrimidin-2-yl)amino)-4-methoxyphenyl)acrylamide] | 51 to 100 | < 51 | < 51 | ≥ 250 | < 51 | < 51
7 | C=CP(C)(=O)Cc1ccc(OC)c(Nc2ncc(Cl)c(Nc3ccccc3P(C)(C)=O)n2)c1 (stereo not drawn) [Example 60, (2-((5-chloro-2-((2-methoxy-5-((methyl(vinyl)phosphoryl)methyl)phenyl)amino)pyrimidin-4-yl)amino)phenyl)dimethylphosphine oxide] | ≥ 250 | ≥ 250 | ≥ 250 | ≥ 250 | ≥ 250 | ≥ 250
8 | COc1cc(P(C)(C)=O)ccc1Nc1ncc(Cl)c(Oc2cccc(NC(=O)/C=C/CN(C)C)c2)n1 [Example 51, (E)-N-(3-((5-chloro-2-((4-(dimethylphosphoryl)-2-methoxyphenyl)amino)pyrimidin-4-yl)oxy)phenyl)-4-(dimethylamino)but-2-enamide] | 51 to 100 | < 51 | < 51 | ≥ 250 | ≥ 250 | ≥ 250
9 | C=C(CN(C)C)C(=O)Nc1ccc(OC)c(Nc2ncc(Cl)c(Nc3ccccc3P(C)(C)=O)n2)c1 [Example 17, N-(3-((5-chloro-4-((2-(dimethylphosphoryl)phenyl)amino)pyrimidin-2-yl)amino)-4-methoxyphenyl)-2-((dimethylamino)methyl)acrylamide] | < 51 | < 51 | < 51 | ≥ 250 | < 51 | < 51
10 | C=CC(=O)Nc1cc(Nc2ncc(Cl)c(Nc3ccccc3P(C)(C)=O)n2)c(OC)cc1OCCN(C)C [Example 19, N-(5-((5-chloro-4-((2-(dimethylphosphoryl)phenyl)amino)pyrimidin-2-yl)amino)-2-(2-(dimethylamino)ethoxy)-4-methoxyphenyl)acrylamide] | < 51 | < 51 | < 51 | ≥ 250 | < 51 | < 51
11 | C=CC(=O)Nc1cc(Nc2ncc(Cl)c(Nc3cccc(C)c3P(=O)(CC)CC)n2)c(OC)cc1F [Example 49, N-(5-((5-chloro-4-((2-(diethylphosphoryl)-3-methylphenyl)amino)pyrimidin-2-yl)amino)-2-fluoro-4-methoxyphenyl)acrylamide] | < 51 | < 51 | < 51 | ≥ 250 | < 51 | < 51
12 | C=CC(=O)Nc1ccc(OC)c(Nc2ncc(C3CC3)c(Nc3ccccc3P(C)(C)=O)n2)c1 [Example 65, N-(3-((5-cyclopropyl-4-((2-(dimethylphosphoryl)phenyl)amino)pyrimidin-2-yl)amino)-4-methoxyphenyl)acrylamide] | 51 to 100 | < 51 | < 51 | ≥ 250 | < 51 | < 51
13 | C=CC(=O)Nc1ccc(OC)c(Nc2ncc(Cl)c(Nc3cccc(C)c3P(=O)(CC)CC)n2)c1 [Example 50, N-(3-((5-chloro-4-((2-(diethylphosphoryl)-3-methylphenyl)amino)pyrimidin-2-yl)amino)-4-methoxyphenyl)acrylamide] | < 51 | < 51 | < 51 | ≥ 250 | < 51 | < 51
14 | C=CC(=O)Nc1ccc(OC)c(Nc2ncc(CC)c(Nc3ccccc3P(C)(C)=O)n2)c1 [Example 63, N-(3-((4-((2-(dimethylphosphoryl)phenyl)amino)-5-ethylpyrimidin-2-yl)amino)-4-methoxyphenyl)acrylamide] | < 51 | < 51 | < 51 | ≥ 250 | < 51 | < 51
15 | COc1cc(N2CCOCC2)c(NC(=O)C2CO2)cc1Nc1ncc(Cl)c(Nc2ccccc2P(C)(C)=O)n1 (stereo not drawn) [Example 59, N-(5-((5-chloro-4-((2-(dimethylphosphoryl)phenyl)amino)pyrimidin-2-yl)amino)-4-methoxy-2-morpholinophenyl)oxirane-2-carboxamide] | < 51 | < 51 | < 51 | ≥ 250 | < 51 | 101 to 250
16 | C=CC(=O)Nc1cc(Nc2ncc(Cl)c(Nc3ccccc3P(C)(C)=O)n2)c(OC)cc1N(C)CCN(C)CCOC [Example 38, N-(5-((5-chloro-4-((2-(dimethylphosphoryl)phenyl)amino)pyrimidin-2-yl)amino)-4-methoxy-2-((2-((2-methoxyethyl)(methyl)amino)ethyl)(methyl)amino)phenyl)acrylamide] | < 51 | < 51 | < 51 | ≥ 250 | < 51 | < 51
17 | C=CC(=O)Nc1cc(Nc2ncc(Cl)c(Nc3ccccc3P(=O)(CC)CC)n2)c(OC)cc1F [Example 48, N-(5-((5-chloro-4-((2-(diethylphosphoryl)phenyl)amino)pyrimidin-2-yl)amino)-2-fluoro-4-methoxyphenyl)acrylamide] | < 51 | < 51 | < 51 | ≥ 250 | < 51 | < 51
18 | C=CC(=O)Nc1ccc(OC)c(Nc2ncc(Cl)c(Nc3ccc(F)cc3P(C)(C)=O)n2)c1 [Example 54, N-(3-((5-chloro-4-((2-(dimethylphosphoryl)-4-fluorophenyl)amino)pyrimidin-2-yl)amino)-4-methoxyphenyl)acrylamide] | 101 to 250 | < 51 | < 51 | ≥ 250 | < 51 | < 51
19 | C=CC(=O)Nc1cc(Nc2ncc(Cl)c(Nc3ccccc3P(C)(C)=O)n2)c(OC)cc1OC(COC)CN(CC)CC (stereo not drawn) [Example 27] | < 51 | < 51 | < 51 | ≥ 250 | < 51 | < 51
20 | C=CC(=O)N(C)c1ccc(OC)c(Nc2ncc(Cl)c(Nc3ccccc3P(C)(C)=O)n2)c1 [Example 44, N-(3-((5-chloro-4-((2-(dimethylphosphoryl)phenyl)amino)pyrimidin-2-yl)amino)-4-methoxyphenyl)-N-methylacrylamide] | 101 to 250 | < 51 | < 51 | ≥ 250 | < 51 | < 51
